Experimental data published in BindingDB's records for doi:10.1021/jm0492958 (Abbott Laboratories, 2005).

Key:
[1] = molecular target: Transient receptor potential cation channel subfamily V member 1 (Homo sapiens, UniProt Q8NER1); assay: Ca2+ Influx Functional Assay for the Determination of in Vitro Activity.; conditions: pH 7.4; 22 °C
Description: (§1) The functional antagonist activity of compounds at the TRPV1 receptor was determined with a Ca2+ influx assay by measuring the effect on capsaicin (0.05 uM) evoked increase in intracellular Ca2+ levels using cells stably expressing recombinant human TRPV1. All compounds were tested over an 11-point half-log concentration range. The fluorescent Ca2+ chelating dye fluo-4 was used as an indicator of the relative levels of Ca2+ in a 96-well format using a fluorescence imaging plate reader. Fluorescence readings were made at 1-5 s intervals over the 240 s course of the experimental run. The peak increase in relative fluorescence units was calculated and expressed as a percentage of the 0.05 uM capsaicin (control) response. Curve fits of the data were solved using a four-parameter logistic Hill equation in GraphPad Prism, and IC50 values were calculated.

[2] = molecular target: Transient receptor potential cation channel subfamily V member 1 (Rattus norvegicus, UniProt O35433); assay: as above; conditions: pH 7.4; 22 °C
Description: as §1

Transient receptor potential cation channel subfamily V member 1 (Homo sapiens, UniProt Q8NER1), sequence (Q8NER1 whole entry): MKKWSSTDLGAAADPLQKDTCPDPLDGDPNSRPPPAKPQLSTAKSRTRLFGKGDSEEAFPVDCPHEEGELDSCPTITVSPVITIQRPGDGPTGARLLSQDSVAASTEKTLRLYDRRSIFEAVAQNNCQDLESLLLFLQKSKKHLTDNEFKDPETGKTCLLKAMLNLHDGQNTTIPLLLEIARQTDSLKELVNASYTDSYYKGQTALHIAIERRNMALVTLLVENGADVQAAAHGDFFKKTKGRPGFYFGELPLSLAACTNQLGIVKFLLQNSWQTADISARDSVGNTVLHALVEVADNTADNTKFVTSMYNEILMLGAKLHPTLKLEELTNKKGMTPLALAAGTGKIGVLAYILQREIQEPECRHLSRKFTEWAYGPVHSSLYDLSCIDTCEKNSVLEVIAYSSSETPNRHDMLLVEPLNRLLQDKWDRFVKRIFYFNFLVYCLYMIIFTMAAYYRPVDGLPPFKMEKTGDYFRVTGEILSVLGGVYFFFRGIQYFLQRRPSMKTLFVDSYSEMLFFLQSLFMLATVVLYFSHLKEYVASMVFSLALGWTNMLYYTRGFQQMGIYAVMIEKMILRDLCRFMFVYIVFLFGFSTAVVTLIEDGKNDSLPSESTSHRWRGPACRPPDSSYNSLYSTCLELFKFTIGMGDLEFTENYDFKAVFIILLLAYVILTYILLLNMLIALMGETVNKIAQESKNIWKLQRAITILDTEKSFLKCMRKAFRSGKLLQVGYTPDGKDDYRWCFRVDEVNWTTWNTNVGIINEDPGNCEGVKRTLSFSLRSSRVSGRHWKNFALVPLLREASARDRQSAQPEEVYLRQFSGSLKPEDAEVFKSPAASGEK
Transient receptor potential cation channel subfamily V member 1 (Rattus norvegicus, UniProt O35433), sequence (O35433 whole entry): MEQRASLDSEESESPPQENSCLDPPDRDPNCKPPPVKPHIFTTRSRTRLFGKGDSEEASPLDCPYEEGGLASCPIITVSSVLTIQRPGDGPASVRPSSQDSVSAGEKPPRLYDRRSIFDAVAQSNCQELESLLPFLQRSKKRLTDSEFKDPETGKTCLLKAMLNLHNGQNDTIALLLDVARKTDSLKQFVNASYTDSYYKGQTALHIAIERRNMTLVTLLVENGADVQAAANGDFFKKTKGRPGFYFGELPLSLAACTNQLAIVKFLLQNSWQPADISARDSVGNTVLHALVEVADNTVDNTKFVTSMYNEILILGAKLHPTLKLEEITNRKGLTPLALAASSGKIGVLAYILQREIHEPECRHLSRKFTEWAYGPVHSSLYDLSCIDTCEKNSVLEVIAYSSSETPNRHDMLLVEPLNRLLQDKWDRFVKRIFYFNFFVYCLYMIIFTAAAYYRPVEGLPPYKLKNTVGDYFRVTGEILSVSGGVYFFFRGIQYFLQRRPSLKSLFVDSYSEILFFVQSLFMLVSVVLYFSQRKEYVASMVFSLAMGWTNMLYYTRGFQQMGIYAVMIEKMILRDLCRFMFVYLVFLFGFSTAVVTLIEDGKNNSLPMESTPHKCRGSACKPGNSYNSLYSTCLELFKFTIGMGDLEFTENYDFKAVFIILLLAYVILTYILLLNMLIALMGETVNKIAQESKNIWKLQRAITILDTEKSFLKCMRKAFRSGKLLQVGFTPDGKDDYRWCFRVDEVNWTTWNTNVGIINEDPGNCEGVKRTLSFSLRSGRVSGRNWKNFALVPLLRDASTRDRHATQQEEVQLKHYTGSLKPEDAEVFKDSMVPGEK

Row | Structure (SMILES) | EC50 [1] [nM] | EC50 [2] [nM]
1 | O=C(NCCc1ccc(C(F)(F)F)cc1)Nc1cccc2cnccc12 | 19 | –
2 | O=C(NCc1cccc(C(F)(F)F)c1)Nc1cccc2cnccc12 [3-isoquinolin-5-yl-1-{[3-(trifluoromethyl)phenyl]methyl}urea] | 51 | –
3 | CSc1cccc(NC(=O)Nc2cccc3ccc(O)cc23)c1 [3-(7-hydroxynaphthalen-1-yl)-1-[3-(methylsulfanyl)phenyl]urea] | 22 | –
4 | O=C(NCCc1cccc(C(F)(F)F)c1)Nc1cccc2cnccc12 | 20 | –
5 | O=C(NCc1ccc(C(F)(F)F)cc1)Nc1cccc2cnccc12 [1-isoquinolin-5-yl-3-{[4-(trifluoromethyl)phenyl]methyl}urea] | 4 | 24
